For one assay, the target named is T1, PKC_iota (Homo sapiens, UniProt P41743).
T1 construct: gene PRKCI
The experiment in a line: biochemical. Further details: Invitrogen kinase panel: Z'Lyte activity (ATP at Km) or LanthaScreen competitive ATP-site binding, percent inhibition.

The target of a further assay is T2, GCK (Homo sapiens, UniProt Q12851).
T2 construct: gene MAP4K2
Description: biochemical. Further details: Invitrogen kinase panel: Z'Lyte activity (ATP at Km) or LanthaScreen competitive ATP-site binding, percent inhibition.

The target of another assay is T3, FAK2 (Homo sapiens, UniProt Q14289).
T3 construct: gene PTK2B
Description: biochemical. Details: Invitrogen kinase panel: Z'Lyte activity (ATP at Km) or LanthaScreen competitive ATP-site binding, percent inhibition.

The target of a further assay is T4, PDGFR_beta (Homo sapiens, UniProt P09619).
T4 construct: gene PDGFRB
Description: biochemical. Details: Invitrogen kinase panel: Z'Lyte activity (ATP at Km) or LanthaScreen competitive ATP-site binding, percent inhibition.

A further assay addresses Fyn (Homo sapiens, UniProt P06241). The experiment in a line: biochemical. Details: Invitrogen kinase panel: Z'Lyte activity (ATP at Km) or LanthaScreen competitive ATP-site binding, percent inhibition.
Another assay concerns the target T5, Cot (Homo sapiens, UniProt P41279).
T5 construct: gene MAP3K8
The experiment in a line: biochemical. Further details: Invitrogen kinase panel: Z'Lyte activity (ATP at Km) or LanthaScreen competitive ATP-site binding, percent inhibition.

For assay [1], the target named is T6, Inositol-Requiring Enzyme 1 (IRE1) (Homo sapiens, UniProt O75460). The experiment in a line: co-crystal structure ([…] Å); also TR-FRET kinase binding, HX-MS, SV-AUC, RNase activation. Details: gene ERN1; unphosphorylated IRE1 cytoplasmic kinase-RNase (IRE1-0P).
T6 sequence (O75460 547-977): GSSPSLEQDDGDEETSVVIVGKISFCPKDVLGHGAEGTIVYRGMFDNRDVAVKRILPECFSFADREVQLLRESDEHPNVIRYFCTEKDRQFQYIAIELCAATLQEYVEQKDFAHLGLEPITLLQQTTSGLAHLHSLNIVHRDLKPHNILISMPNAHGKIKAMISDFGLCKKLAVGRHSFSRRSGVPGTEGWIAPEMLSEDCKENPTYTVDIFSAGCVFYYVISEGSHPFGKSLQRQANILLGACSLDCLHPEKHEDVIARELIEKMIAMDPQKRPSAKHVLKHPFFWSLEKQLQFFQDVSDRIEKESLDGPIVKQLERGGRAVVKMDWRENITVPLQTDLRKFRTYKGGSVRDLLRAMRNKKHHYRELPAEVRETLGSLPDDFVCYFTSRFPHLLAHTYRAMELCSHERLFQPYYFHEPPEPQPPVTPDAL
The next assay deals with DYRK1A (Homo sapiens, UniProt Q13627). Description: biochemical. Further details: Invitrogen kinase panel: Z'Lyte activity (ATP at Km) or LanthaScreen competitive ATP-site binding, percent inhibition.
In a further assay the target is T7, IRE2 (Homo sapiens, UniProt Q76MJ5).
T7 construct: gene ERN2
The experiment in a line: biochemical. Details: Invitrogen kinase panel: Z'Lyte activity (ATP at Km) or LanthaScreen competitive ATP-site binding, percent inhibition.

For another assay, the target named is PAK3 (Homo sapiens, UniProt O75914). The experiment in a line: biochemical. Details: Invitrogen kinase panel: Z'Lyte activity (ATP at Km) or LanthaScreen competitive ATP-site binding, percent inhibition.
PAK3, sequence (O75914 whole entry): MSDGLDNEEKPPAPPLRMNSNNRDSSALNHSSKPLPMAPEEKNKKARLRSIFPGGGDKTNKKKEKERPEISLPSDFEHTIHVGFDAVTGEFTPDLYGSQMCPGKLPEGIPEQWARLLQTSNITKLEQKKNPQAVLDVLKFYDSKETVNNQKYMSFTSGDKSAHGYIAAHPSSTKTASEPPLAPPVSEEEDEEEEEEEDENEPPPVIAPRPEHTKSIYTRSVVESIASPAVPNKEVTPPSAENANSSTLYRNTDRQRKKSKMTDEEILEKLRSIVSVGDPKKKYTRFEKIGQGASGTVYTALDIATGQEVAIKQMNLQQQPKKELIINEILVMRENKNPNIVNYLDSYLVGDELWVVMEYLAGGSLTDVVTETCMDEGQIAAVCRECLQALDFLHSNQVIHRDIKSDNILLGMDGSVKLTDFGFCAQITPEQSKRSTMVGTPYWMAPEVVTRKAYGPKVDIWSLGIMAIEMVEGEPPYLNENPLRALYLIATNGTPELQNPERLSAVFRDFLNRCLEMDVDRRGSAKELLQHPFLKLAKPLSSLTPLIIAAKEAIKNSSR
In another assay the target is PAK4 (Homo sapiens, UniProt O96013). Description: biochemical. Details: Invitrogen kinase panel: Z'Lyte activity (ATP at Km) or LanthaScreen competitive ATP-site binding, percent inhibition.
For another assay, the target named is InsR (Homo sapiens, UniProt P06213). The experiment in a line: biochemical. Details: Invitrogen kinase panel: Z'Lyte activity (ATP at Km) or LanthaScreen competitive ATP-site binding, percent inhibition.
InsR, sequence (P06213 whole entry): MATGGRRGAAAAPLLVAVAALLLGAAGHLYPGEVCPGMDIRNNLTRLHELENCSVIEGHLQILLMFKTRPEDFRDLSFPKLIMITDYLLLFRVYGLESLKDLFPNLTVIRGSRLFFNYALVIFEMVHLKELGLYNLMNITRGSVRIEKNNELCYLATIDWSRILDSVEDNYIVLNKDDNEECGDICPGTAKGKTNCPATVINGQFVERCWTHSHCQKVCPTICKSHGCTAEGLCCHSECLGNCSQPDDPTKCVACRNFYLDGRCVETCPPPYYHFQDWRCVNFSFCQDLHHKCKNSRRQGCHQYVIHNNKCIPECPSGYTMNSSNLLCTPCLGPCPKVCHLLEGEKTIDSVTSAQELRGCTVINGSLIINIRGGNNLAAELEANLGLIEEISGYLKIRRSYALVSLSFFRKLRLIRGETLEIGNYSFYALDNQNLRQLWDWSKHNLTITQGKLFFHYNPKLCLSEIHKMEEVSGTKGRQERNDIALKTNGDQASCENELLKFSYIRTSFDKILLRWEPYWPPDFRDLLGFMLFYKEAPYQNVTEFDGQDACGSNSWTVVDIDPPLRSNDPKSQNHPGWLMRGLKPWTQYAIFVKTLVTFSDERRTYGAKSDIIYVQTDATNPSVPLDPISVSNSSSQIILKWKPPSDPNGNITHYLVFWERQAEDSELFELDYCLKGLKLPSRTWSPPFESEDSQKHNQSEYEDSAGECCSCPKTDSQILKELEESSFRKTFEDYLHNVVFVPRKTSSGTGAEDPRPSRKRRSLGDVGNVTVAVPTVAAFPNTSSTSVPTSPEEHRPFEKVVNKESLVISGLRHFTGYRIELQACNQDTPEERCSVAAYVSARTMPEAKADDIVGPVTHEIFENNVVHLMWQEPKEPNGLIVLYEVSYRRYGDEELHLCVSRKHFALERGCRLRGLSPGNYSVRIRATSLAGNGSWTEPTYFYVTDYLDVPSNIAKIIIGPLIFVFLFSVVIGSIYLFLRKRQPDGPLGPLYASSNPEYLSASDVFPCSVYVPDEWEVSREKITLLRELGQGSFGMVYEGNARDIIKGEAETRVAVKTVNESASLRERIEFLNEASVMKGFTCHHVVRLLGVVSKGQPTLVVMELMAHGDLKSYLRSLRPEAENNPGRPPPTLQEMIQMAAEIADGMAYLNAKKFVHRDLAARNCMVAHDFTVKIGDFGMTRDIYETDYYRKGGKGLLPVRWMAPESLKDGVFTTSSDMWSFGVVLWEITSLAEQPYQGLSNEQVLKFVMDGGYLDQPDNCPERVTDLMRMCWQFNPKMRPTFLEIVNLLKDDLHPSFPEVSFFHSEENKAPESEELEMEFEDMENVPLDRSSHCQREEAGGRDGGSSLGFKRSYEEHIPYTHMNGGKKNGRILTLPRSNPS
The next assay has as its target WNK2 (Homo sapiens, UniProt Q9Y3S1). Description: biochemical. Further details: Invitrogen kinase panel: Z'Lyte activity (ATP at Km) or LanthaScreen competitive ATP-site binding, percent inhibition.
The target of another assay is SGK2 (Homo sapiens, UniProt Q9HBY8). The experiment in a line: biochemical. Further details: Invitrogen kinase panel: Z'Lyte activity (ATP at Km) or LanthaScreen competitive ATP-site binding, percent inhibition.
SGK2, sequence (Q9HBY8 whole entry): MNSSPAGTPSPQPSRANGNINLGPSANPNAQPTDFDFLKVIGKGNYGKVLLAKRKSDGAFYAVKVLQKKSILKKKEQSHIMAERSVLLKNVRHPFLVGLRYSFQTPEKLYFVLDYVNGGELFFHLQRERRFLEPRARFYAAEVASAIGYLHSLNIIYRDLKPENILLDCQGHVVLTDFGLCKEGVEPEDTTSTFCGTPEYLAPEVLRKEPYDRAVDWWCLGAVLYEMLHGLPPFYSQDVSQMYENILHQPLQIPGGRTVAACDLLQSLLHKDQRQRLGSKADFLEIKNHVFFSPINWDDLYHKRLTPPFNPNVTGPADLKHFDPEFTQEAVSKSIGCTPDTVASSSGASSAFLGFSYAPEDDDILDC
A further assay has as its target EphA8 (Homo sapiens, UniProt P29322). Description: biochemical. Further details: Invitrogen kinase panel: Z'Lyte activity (ATP at Km) or LanthaScreen competitive ATP-site binding, percent inhibition.
The target of another assay is T8, p38_alpha(direct) (Homo sapiens, UniProt Q16539).
T8 construct: gene MAPK14; direct
The experiment in a line: biochemical. Details: Invitrogen kinase panel: Z'Lyte activity (ATP at Km) or LanthaScreen competitive ATP-site binding, percent inhibition.

Assay [2] has as its target T6, Inositol-Requiring Enzyme 1 (IRE1). The experiment in a line: co-crystal structure ([…] Å); also TR-FRET kinase binding, HX-MS, RNase activation. Further details: gene ERN1; IRE1 KR (G547-L977), unphosphorylated (IRE1-0P).

SMILES strings stand for the structures.

WNK2, sequence (Q9Y3S1 whole entry): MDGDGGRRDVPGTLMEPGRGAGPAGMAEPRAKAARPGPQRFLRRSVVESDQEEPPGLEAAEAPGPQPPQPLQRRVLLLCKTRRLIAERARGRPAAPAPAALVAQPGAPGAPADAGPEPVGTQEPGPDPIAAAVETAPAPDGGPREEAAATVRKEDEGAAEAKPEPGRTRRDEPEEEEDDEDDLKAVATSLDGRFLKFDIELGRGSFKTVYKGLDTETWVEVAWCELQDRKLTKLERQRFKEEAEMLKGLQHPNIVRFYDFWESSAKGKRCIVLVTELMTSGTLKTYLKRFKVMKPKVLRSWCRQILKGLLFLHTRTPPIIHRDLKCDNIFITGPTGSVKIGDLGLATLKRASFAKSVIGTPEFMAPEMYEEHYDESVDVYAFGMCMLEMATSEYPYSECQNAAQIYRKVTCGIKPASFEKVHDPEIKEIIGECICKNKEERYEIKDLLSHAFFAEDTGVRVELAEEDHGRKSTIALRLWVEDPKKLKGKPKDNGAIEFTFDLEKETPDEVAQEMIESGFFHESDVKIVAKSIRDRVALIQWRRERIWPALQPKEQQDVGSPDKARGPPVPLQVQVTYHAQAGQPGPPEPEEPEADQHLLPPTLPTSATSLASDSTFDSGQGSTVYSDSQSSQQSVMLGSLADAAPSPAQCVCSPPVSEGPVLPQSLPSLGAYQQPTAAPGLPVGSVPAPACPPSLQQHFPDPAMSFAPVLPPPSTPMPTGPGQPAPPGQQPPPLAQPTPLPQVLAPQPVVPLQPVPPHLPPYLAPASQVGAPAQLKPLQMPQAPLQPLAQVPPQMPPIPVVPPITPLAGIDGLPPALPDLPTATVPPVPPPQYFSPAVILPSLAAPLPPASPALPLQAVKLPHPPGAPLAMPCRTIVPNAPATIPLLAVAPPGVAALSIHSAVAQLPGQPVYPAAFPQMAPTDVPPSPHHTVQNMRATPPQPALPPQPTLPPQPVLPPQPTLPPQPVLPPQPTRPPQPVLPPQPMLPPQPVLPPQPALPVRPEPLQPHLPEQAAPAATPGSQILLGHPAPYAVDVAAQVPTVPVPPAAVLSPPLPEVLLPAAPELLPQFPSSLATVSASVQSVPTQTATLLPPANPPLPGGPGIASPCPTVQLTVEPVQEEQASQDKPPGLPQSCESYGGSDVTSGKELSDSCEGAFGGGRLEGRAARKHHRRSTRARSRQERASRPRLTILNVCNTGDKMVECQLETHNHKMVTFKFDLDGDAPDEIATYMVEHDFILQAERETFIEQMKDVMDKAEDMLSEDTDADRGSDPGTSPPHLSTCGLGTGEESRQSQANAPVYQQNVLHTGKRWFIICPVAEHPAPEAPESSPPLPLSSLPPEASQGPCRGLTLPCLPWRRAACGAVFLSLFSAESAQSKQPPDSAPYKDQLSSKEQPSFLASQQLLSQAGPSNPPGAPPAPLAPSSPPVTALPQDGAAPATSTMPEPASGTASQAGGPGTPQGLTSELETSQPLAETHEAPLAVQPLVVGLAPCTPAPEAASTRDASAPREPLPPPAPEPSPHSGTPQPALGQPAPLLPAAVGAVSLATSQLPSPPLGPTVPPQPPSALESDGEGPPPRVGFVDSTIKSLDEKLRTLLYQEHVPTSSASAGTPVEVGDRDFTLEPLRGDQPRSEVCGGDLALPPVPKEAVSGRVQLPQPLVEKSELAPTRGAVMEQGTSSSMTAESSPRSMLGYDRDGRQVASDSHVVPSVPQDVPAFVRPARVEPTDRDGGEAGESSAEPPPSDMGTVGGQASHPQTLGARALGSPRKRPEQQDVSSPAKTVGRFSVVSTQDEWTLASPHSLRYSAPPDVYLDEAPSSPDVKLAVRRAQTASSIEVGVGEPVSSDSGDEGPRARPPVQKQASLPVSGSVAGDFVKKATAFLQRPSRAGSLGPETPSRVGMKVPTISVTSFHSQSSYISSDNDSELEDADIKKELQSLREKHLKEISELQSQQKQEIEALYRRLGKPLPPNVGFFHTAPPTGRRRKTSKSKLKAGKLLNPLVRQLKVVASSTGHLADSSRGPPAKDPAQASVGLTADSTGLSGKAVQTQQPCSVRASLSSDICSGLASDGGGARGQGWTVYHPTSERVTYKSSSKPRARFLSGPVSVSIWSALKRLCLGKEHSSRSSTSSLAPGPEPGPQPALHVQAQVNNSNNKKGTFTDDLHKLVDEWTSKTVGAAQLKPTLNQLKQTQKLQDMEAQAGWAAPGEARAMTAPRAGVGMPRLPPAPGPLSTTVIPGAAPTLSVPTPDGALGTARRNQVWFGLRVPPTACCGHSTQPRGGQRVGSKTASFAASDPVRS

Turning to `O=c1cc(-c2n[nH]c3ncc(-c4c(F)cccc4F)cc23)nc(N2CCC(O)CC2)[nH]1` [G-9807], the inhibition at 1 µM on PKC_iota turned out to be 46.6%; on GCK it was 95.7%; on FAK2, 79.6%; at PDGFR_beta, 80.4%; at Fyn, 76.2%; on Cot, 94%. The IC50 entry in assay [1] is on record as “low-nanomolar”.

Regarding `CC#CC(=O)Nc1cccc2c(Oc3ncccc3-c3ccnc(N[C@H]4CCCNC4)n3)c(C)ccc12` [G-7658], the inhibition at 1 µM was 2.5% at DYRK1A; 5.5% on IRE2; 5% at PAK3; 0% at PAK4; 3% at InsR; -2.5% at WNK2. In addition, the results for the inhibition at 1 µM on SGK2, at EphA8 and at p38_alpha(direct) were 1.5%, 6.5% and 36.5%, respectively.

On to `CCOC(=O)Nc1cccc2c(Oc3ncccc3-c3ccnc(N[C@H]4CCCNC4)n3)c(C)ccc12` [G-1749], for which the inhibition at 1 µM is 4% at DYRK1A; 9.5% at IRE2; 6.5% at PAK3; 0% on PAK4; 2.5% at InsR; -1% on WNK2. Further, the figures for the inhibition at 1 µM on SGK2, at EphA8 and at p38_alpha(direct) were 3.5%, 1.5% and 77.5%, respectively. Also, the IC50 entry in assay [2] is “low-nanomolar”.

The values above are taken from paper PMC7736581, “Activation of the IRE1 RNase through remodeling of the kinase front pocket by ATP-competitive ligands” (Nature Communications, 2020).
